Laboratory results taken from patent publication US8604218B2, “Cytoskeletal active rho kinase inhibitor compounds, composition and use” (Inspire Pharmaceuticals, Inc., priority 2006, dated 2013).

target: ROCK2 (Homo sapiens (Human), UniProt O75116); experiment: Rho Kinase Inhibition Assay (IMAP fluorescence polarization); assay type: biochemical; details: isolated enzyme, 10 μM ATP, 60 minutes at room temperature
Procedure: Following the preincubation, 10 μM ATP was added to initiate the reaction. After 60 minutes at room temperature, Molecular Devices IMAP™ binding solution was added to bind phosphorylated substrate. After 30 minutes of incubation in the presence of the IMAP™ beads the fluorescence polarization was read and the ratio was reported as mP. IC50 results were calculated using the Prism software from Graphpad.
See Tian et al., Arch. Ophthalmol. […] Ophthalmol. Vis. […] Ophthalmol. […] Cytoskel. […] Ophthalmol. Vis. […] Ophthalmol. Vis.

Sequence of ROCK2 (O75116 11-552): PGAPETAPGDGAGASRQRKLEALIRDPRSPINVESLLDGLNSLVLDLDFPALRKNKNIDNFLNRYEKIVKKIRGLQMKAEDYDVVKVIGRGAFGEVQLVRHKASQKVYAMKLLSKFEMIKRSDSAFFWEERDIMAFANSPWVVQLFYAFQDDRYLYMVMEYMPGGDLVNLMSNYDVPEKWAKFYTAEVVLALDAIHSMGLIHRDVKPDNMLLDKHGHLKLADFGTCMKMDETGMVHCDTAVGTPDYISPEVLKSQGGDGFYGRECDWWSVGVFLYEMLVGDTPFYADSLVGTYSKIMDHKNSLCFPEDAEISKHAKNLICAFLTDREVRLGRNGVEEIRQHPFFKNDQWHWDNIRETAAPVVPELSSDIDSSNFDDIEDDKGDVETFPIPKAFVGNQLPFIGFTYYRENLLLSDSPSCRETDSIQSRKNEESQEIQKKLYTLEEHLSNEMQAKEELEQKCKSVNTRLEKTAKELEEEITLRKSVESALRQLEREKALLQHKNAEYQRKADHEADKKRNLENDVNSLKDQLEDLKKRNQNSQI

IC50 [nM] | Compound
280 | CS(=O)(=O)Nc1cccc(CN2CCC(Nc3ccc4[nH]ncc4c3)C2)c1 (centres unmarked) [Compound 1.087, N-(3-((3-(1H-indazol-5-ylamino)pyrrolidin-1-yl)methyl)phenyl)methanesulfonamide]
651 | OCCOc1cccc(CN2CCC(Nc3ccc4[nH]ncc4c3)C2)c1 (centres unmarked) [Compound 1.088, 2-(3-((3-(1H-indazol-5-ylamino)pyrrolidin-1-yl)methyl)phenoxy)ethanol]
29.4 | Nc1cc(CN2CCCC(Nc3ccc4[nH]ncc4c3)C2)ccc1Cl (centres unmarked) [Compound 1.089, N-(1-(3-amino-4-chlorobenzyl)piperidin-3-yl)-1H-indazol-5-amine]
354 | OCCOc1cccc(CN2CCC[C@H](Nc3ccc4[nH]ncc4c3)C2)c1 [Compound 1.090, (S)-2-(3-((3-(1H-indazol-5-ylamino)piperidin-1-yl)methyl)phenoxy)ethanol]
49.4 | CS(=O)(=O)Nc1cccc(CN2CCC[C@H](Nc3ccc4[nH]ncc4c3)C2)c1 [Compound 1.091, (S)-N-(3-((3-(1H-indazol-5-ylamino)piperidin-1-yl)methyl)phenyl)methanesulfonamide]
406 | OCCOc1cccc(CN2CCC[C@@H](Nc3ccc4[nH]ncc4c3)C2)c1 [Compound 1.092, (R)-2-(3-((3-(1H-indazol-5-ylamino)piperidin-1-yl)methyl)phenoxy)ethanol]
101 | CS(=O)(=O)Nc1cccc(CN2CCC[C@@H](Nc3ccc4[nH]ncc4c3)C2)c1 [Compound 1.093, (R)-N-(3-((3-(1H-indazol-5-ylamino)piperidin-1-yl)methyl)phenyl)methanesulfonamide]
466 | OCCOc1cccc(CN2CC[C@H](Nc3ccc4[nH]ncc4c3)C2)c1 [Compound 1.094, (S)-2-(3-((3-(1H-indazol-5-ylamino)pyrrolidin-1-yl)methyl)phenoxy)ethanol]
647 | CS(=O)(=O)Nc1cccc(CN2CC[C@H](Nc3ccc4[nH]ncc4c3)C2)c1 [Compound 1.095, (S)-N-(3-((3-(1H-indazol-5-ylamino)pyrrolidin-1-yl)methyl)phenyl)methanesulfonamide]
1300 | OCCOc1cccc(CN2CC[C@@H](Nc3ccc4[nH]ncc4c3)C2)c1 [Compound 1.096, (R)-2-(3-((3-(1H-indazol-5-ylamino)pyrrolidin-1-yl)methyl)phenoxy)ethanol]
276 | CS(=O)(=O)Nc1cccc(CN2CC[C@@H](Nc3ccc4[nH]ncc4c3)C2)c1 [Compound 1.097, (R)-N-(3-((3-(1H-indazol-5-ylamino)pyrrolidin-1-yl)methyl)phenyl)methanesulfonamide]
250 | NC(=O)COc1cccc(CN2CCCC(Nc3ccc4[nH]ncc4c3)C2)c1 (centres unmarked) [Compound 1.098, 2-(3-((3-(1H-indazol-5-ylamino)piperidin-1-yl)methyl)phenoxy)acetamide]
25.8 | NC(=O)Cn1ccc2ccc(CN3CCCC(Nc4ccc5[nH]ncc5c4)C3)cc21 (centres unmarked) [Compound 1.099, 2-(6-((3-(1H-indazol-5-ylamino)piperidin-1-yl)methyl)-1H-indol-1-yl)acetamide]
42.9 | c1cc2cc(CN3CCCC(Nc4ccc5[nH]ncc5c4)C3)ccc2[nH]1 (centres unmarked) [Compound 1.100, N-(1-((1H-indol-5-yl)methyl)piperidin-3-yl)-1H-indazol-5-amine]
68.5 | OCCn1ccc2ccc(CN3CCCC(Nc4ccc5[nH]ncc5c4)C3)cc21 (centres unmarked) [Compound 1.101, 2-(6-((3-(1H-indazol-5-ylamino)piperidin-1-yl)methyl)-1H-indol-1-yl)ethanol]
34.3 | CS(=O)(=O)Nc1cc(CN2CCCC(Nc3ccc4[nH]ncc4c3)C2)ccc1Cl (centres unmarked) [Compound 1.102, N-(5-((3-(1H-indazol-5-ylamino)piperidin-1-yl)methyl)-2-chlorophenyl)methanesulfonamide]
107 | OCCN1CCc2ccc(CN3CCCC(Nc4ccc5[nH]ncc5c4)C3)cc21 (centres unmarked) [Compound 1.104, 2-(6-((3-(1H-indazol-5-ylamino)piperidin-1-yl)methyl)indolin-1-yl)ethanol]
172 | NC(=O)Cn1ccc2cc(CN3CCCC(Nc4ccc5[nH]ncc5c4)C3)ccc21 (centres unmarked) [Compound 1.105, 2-(5-((3-(1H-indazol-5-ylamino)piperidin-1-yl)methyl)-1H-indol-1-yl)acetamide]
69.2 | NC(=O)Cn1ccc2ccc(CN3CCC[C@@H](Nc4ccc5[nH]ncc5c4)C3)cc21 [Compound 1.106, (R)-2-(6-((3-(1H-indazol-5-ylamino)piperidin-1-yl)methyl)-1H-indol-1-yl)acetamide]
148 | NC(=O)Cn1ccc2ccc(CN3CCC[C@H](Nc4ccc5[nH]ncc5c4)C3)cc21 [Compound 1.107, (S)-2-(6-((3-(1H-indazol-5-ylamino)piperidin-1-yl)methyl)-1H-indol-1-yl)acetamide]

IC50 [nM] | Compound
367 | OCCn1ccc2ccc(CN3CCC[C@@H](Nc4ccc5[nH]ncc5c4)C3)cc21 [Compound 1.108, (R)-2-(6-((3-(1H-indazol-5-ylamino)piperidin-1-yl)methyl)-1H-indol-1-yl)ethanol]
242 | OCCn1ccc2ccc(CN3CCC[C@H](Nc4ccc5[nH]ncc5c4)C3)cc21 [Compound 1.109, (S)-2-(6-((3-(1H-indazol-5-ylamino)piperidin-1-yl)methyl)-1H-indol-1-yl)ethanol]
591 | CC(=O)NCCOc1cccc(CN2CCCC(Nc3ccc4[nH]ncc4c3)C2)c1 (centres unmarked) [Compound 1.111, N-(2-(3-((3-(1H-indazol-5-ylamino)piperidin-1-yl)methyl)phenoxy)ethyl)acetamide]
2030 | CC(C)(C)OC(=O)Cn1ccc2cc(CN3CCCC(Nc4ccc5[nH]ncc5c4)C3)ccc21 (centres unmarked) [Compound 1.112, tert-butyl 2-(5-((3-(1H-indazol-5-ylamino)piperidin-1-yl)methyl)-1H-indol-1-yl)acetate]
1490 | OCCn1ccc2cc(CN3CCCC(Nc4ccc5[nH]ncc5c4)C3)ccc21 (centres unmarked) [Compound 1.114, 2-(5-((3-(1H-indazol-5-ylamino)piperidin-1-yl)methyl)-1H-indol-1-yl)ethanol]
862 | C[C@@H](O)COc1cccc(CN2CCC[C@@H](Nc3ccc4[nH]ncc4c3)C2)c1 [Compound 1.116, (R)-1-(3-(((R)-3-(1H-indazol-5-ylamino)piperidin-1-yl)methyl)phenoxy)propan-2-ol]
1400 | C[C@@H](O)COc1cccc(CN2CCC[C@H](Nc3ccc4[nH]ncc4c3)C2)c1 [Compound 1.118, (R)-1-(3-(((S)-3-(1H-indazol-5-ylamino)piperidin-1-yl)methyl)phenoxy)propan-2-ol]
3630 | O=C(O)Cn1ccc2cc(CN3CCCC(Nc4ccc5[nH]ncc5c4)C3)ccc21 (centres unmarked) [Compound 1.119, 2-(5-((3-(1H-indazol-5-ylamino)piperidin-1-yl)methyl)-1H-indol-1-yl)acetic acid]
109 | CCS(=O)(=O)Nc1cccc(CN2CCCC(Nc3ccc4[nH]ncc4c3)C2)c1 (centres unmarked) [Compound 1.120, N-(3-((3-(1H-indazol-5-ylamino)piperidin-1-yl)methyl)phenyl)ethanesulfonamide]
578 | CN(c1cccc(CN2CCCC(Nc3ccc4[nH]ncc4c3)C2)c1)S(C)(=O)=O (centres unmarked) [Compound 1.121, N-(3-((3-(1H-indazol-5-ylamino)piperidin-1-yl)methyl)phenyl)-N-methylmethanesulfonamide]
254 | CC(=O)NCc1cccc(CN2CCCC(Nc3ccc4[nH]ncc4c3)C2)c1 (centres unmarked) [Compound 1.122, N-(3-((3-(1H-indazol-5-ylamino)piperidin-1-yl)methyl)benzyl)acetamide]
135 | CCS(=O)(=O)Nc1cccc(CN2CCC[C@@H](Nc3ccc4[nH]ncc4c3)C2)c1 [Compound 1.123, (R)-N-(3-((3-(1H-indazol-5-ylamino)piperidin-1-yl)methyl)phenyl)ethanesulfonamide]
59.2 | CCS(=O)(=O)Nc1cccc(CN2CCC[C@H](Nc3ccc4[nH]ncc4c3)C2)c1 [Compound 1.124, (S)-N-(3-((3-(1H-indazol-5-ylamino)piperidin-1-yl)methyl)phenyl)ethanesulfonamide]
879 | O=C(O)COc1cccc(CN2CCC[C@@H](Nc3ccc4[nH]ncc4c3)C2)c1 [Compound 1.125, (R)-2-(3-((3-(1H-indazol-5-ylamino)piperidin-1-yl)methyl)phenoxy)acetic acid]
2710 | OCCOc1cccc(CN2CCC(Nc3ccc4[nH]ncc4c3)CC2)c1 [Compound 1.130, 2-(3-((4-(1H-indazol-5-ylamino)piperidin-1-yl)methyl)phenoxy)ethanol]
98.8 | COc1ccc(CN2CCCC(Nc3cccc4cnccc34)C2)cc1 (centres unmarked) [Compound 2.001, N-(1-(4-methoxybenzyl)piperidin-3-yl)isoquinolin-5-amine]
5720 | N#Cc1cccc(CN2CCCC(Nc3cccc4cnccc34)C2)c1 (centres unmarked) [Compound 2.003, 3-((3-(isoquinolin-5-ylamino)piperidin-1-yl)methyl)benzonitrile]
3710 | CC(=O)Nc1ccc(CN2CCCC(Nc3cccc4cnccc34)C2)cc1 (centres unmarked) [Compound 2.004, N-(4-((3-(isoquinolin-5-ylamino)piperidin-1-yl)methyl)phenyl)acetamide]
1780 | CS(=O)(=O)c1ccc(CN2CCC(Nc3cccc4cnccc34)C2)cc1 (centres unmarked) [Compound 2.005, N-(1-(4-(methylsulfonyl)benzyl)pyrrolidin-3-yl)isoquinolin-5-amine]

Compound | IC50 [nM]
OC[C@H](O)COc1cccc(CN2CCC[C@@H](Nc3ccc4[nH]ncc4c3)C2)c1 [Compound 1.113, (S)-3-(3-(((R)-3-(1H-indazol-5-ylamino)piperidin-1-yl)methyl)phenoxy)propane-1,2-diol] | 859
OC[C@@H](O)COc1cccc(CN2CCC[C@@H](Nc3ccc4[nH]ncc4c3)C2)c1 [Compound 1.115, (R)-3-(3-(((R)-3-(1H-indazol-5-ylamino)piperidin-1-yl)methyl)phenoxy)propane-1,2-diol] | 555
